{"source": "patent US20050233991A1", "about": "“Methods and compositions for the identification, assessment, and therapy of small cell lung cancer” (priority 2002, published 2005)", "key": {"NCI-H446 cells": {"test_system": "NCI-H446 cells", "assay": "Phase contrast microscopy of SDF-1α induced adhesion/morphology with LY294002", "type": "cell-based, human", "conditions": "SDF-1α 100 ng/ml, 24 hour time point", "description": "(§1) Phase-contrast photomicrographs were taken at various time points (0, 1, 2, 4, 8, and 24 hours). For LY294002 studies, starved NCI-H446 cells (1×10^6) were resuspended in serum free media and placed onto a 35 mm tissue culture dish (Becton Dickinson Labware).\nPhase-contrast microscopy pictures were taken at the 24 hour time point. Most of the untreated cells kept their rounded shape and formed clusters, and nearly half of them attached weakly to the bottom of the dish."}, "Akt and p70 S6 kinase": {"test_system": "Akt and p70 S6 kinase", "assay": "Immunoblotting of Akt and p70 S6 kinase phosphorylation", "type": "cell-based, human", "conditions": "for time to phosphorylation of Akt (Ser 473) and p70 S6 kinase (Thr 389): 50 ng/ml, serum starved NCI-H69 cells", "description": "(§2) Cells were lysed in lysis buffer (20 mM Tris pH 8.0, 150 mM NaCl, 10% glycerol, 1% NP-40, 0.42% NaF) containing protease inhibitors (1 mM PMSF, 1 mM Na3VO4, 5 μg/ml aprotinin, 5 μg/ml leupeptin). Cell lysates were separated by 7.5% SDS-PAGE under reducing conditions and transferred to nitrocellulose membranes (Schleicher & Schuell, Dassel, Germany). Proteins were detected by immunoblotting using an enhanced chemiluminescence technique (NEN Life Science Products, Mass.). Rabbit polyclonal antibodies against c-Kit (C-19; Santa Cruz Biotechnology, Inc., Santa Cruz, Calif.), Akt, Akt (pSer 473), Akt (pThr 308), p70 S6 kinase, and p70 S6 kinase (pThr 389) (Cell Signaling Technology, Inc., Beverly, Mass.) and monoclonal antibodies against […]-actin (AC-15; Sigma, St. Louis, Mo.) and phosphotyrosine (4G10, UBI, Lake Placid, N.Y.) were used.\n(§3) The activity of the PI3-K downstream targets Akt and p70 S6 kinase is regulated through critical serine/threonine (Ser/The) residues (Franke, T. F. et al. (1997) Cell 88:435-7; Pullen, N. and Thomas, G. (1997) FEBS Lett 410:78-82). […] Cell lysates were applied to a 7.5% SDS-PAGE gel and transferred to nitrocellulose membrane. The membrane was probed with monoclonal antibodies against phosphotyrosine (4G10) and β-actin and polyclonal antibodies against Akt (pSer 473) and p70 S6 kinase (S6K) (pThr 389). […] On the other hand, maximal tyrosine phosphorylation of proteins at 60-90 kDa and 110-145 kDa occurred within 2.5-7.5 minutes in response to SCF.\nLysates were processed as described above in Example 6, and the membrane was probed with the phospho-specific or regular antibodies against Akt and p70 S6 kinase, as well as with an anti-c-Kit antibody. […] The expression levels of Akt, p70 S6 kinase, and c-Kit were not affected by any of these treatments."}, "NCI-H69 cells [1]": {"test_system": "NCI-H69 cells", "assay": "Phase contrast microscopy of morphological changes with SDF-1α, SCF and STI571", "type": "cell-based, human", "conditions": "for morphological change of NCI-H69 cells in response to ligand: 100 ng/ml, pictures after 8 hours", "description": "as §1\nIt has not been shown previously that there is a functional interaction between CXCR4 and c-Kit in SCLC. […] Phase-contrast microscopy pictures were then taken after 8 hours. Morphological changes began to be apparent at 4 hours, and the changes plateaued between 8 and 24 hours. […] Inhibition of the active c-Kit receptor by STI571 may lead to the inhibition of other active receptors such as CXCR4."}, "human c-Kit (human)": {"biological_target": "human c-Kit (human)", "assay": "cell-based or functional assay"}, "NCI-H69 cells [2]": {"test_system": "NCI-H69 cells", "assay": "Cell viability assay (trypan blue dye exclusion)", "type": "cell-based, human", "conditions": "100 ng/ml; for increase in viable cell number: 10% FCS, 72 hours; for effect on cell survival: without serum", "description": "Ten small cell lung cancer (SCLC) cell lines (NCI-H69, NCI-H82, NCI-H128, NCI-H146, NCI-H209, NCI-H249, NCI-H345, NCI-H446, NCI-H510, and NCI-H526) were purchased from the American Type Culture Collection (Rockville, Md.) and maintained in RPMI 1640 medium (Cellgro) supplemented with 10% (v/v) fetal calf serum (FCS). MO7e cells were maintained as described in Sattler, M. et al. (1997) J. Biol. Chem. 272:10248-53. All cell lines were incubated at 37° C. in a 5% CO2 humidified atmosphere and harvested during log phase growth. Cells were deprived of growth factors by incubation in RPMI 1640 medium containing 0.5% (w/v) bovine serum albumin (BSA) (Sigma, St. Louis, Mo.) for 18 hours. In some experiments, cells were treated with 5 μM STI571 (Gleevec™, Novartis Pharmaceuticals, Basel, Switzerland) or 25 μM LY294002 (Sigma).\nViable cells were counted by trypan blue dye exclusion test every 24 hours up to 72 hours. Data was plotted as the mean±SD from three independent experiments. Student's t test was used for the statistical analysis of viable cell number under individual conditions. Differences were considered statistically significant at p<0.05."}, "[3]": {"test_system": "tyrosine phosphorylation of cellular proteins in NCI-H69 cells", "assay": "Immunoblotting of tyrosine phosphorylation of cellular proteins (4G10)", "type": "cell-based, human", "description": "as §2, §3"}}}
{"compound": "O=c1cc(N2CCOCC2)oc2c(-c3ccccc3)cccc12", "note": "[LY294002, reference compound]", "values": [{"measurement": "cells floating with rounded shapes in spite of SDF-1α treatment", "setting": "NCI-H446 cells; LY294002 25 μM", "result": "more than 90%"}]}
{"compound": "Cc1ccc(NC(=O)c2ccc(CN3CCN(C)CC3)cc2)cc1Nc1nccc(-c2cccnc2)n1", "note": "[STI571]", "values": [{"measurement": "effect of pre-treatment on SCF induced phosphorylation of Akt and p70 S6 kinase", "setting": "Akt and p70 S6 kinase; STI571 5 μM or LY294002 25 μM overnight, then 50 ng/ml SCF 15 minutes, NCI-H69 cells", "result": "inhibited"}, {"measurement": "inhibition of the morphological changes", "setting": "NCI-H69 cells [1]; STI571 5 μM", "result": "only in the presence of SCF"}, {"measurement": "neurite like projections induced by SDF-1α alone in the presence of STI571", "setting": "NCI-H69 cells [1]; STI571 5 μM, SDF-1α 100 ng/ml", "result": "still formed"}, {"measurement": "neurite like structures in STI571 treated cells stimulated with both SDF-1α and SCF", "setting": "NCI-H69 cells [1]; STI571 5 μM, SDF-1α 100 ng/ml and SCF 100 ng/ml", "result": "could not form any neurite like structures"}]}
{"compound": "Recombinant human SCF (stem cell factor) (from UniProt P21583 26-189) (ligand)", "values": [{"measurement": "cell proliferation of NCI-H69 cells (viable cell count, trypan blue), 10% FCS, 100 ng/ml SCF, 48 hours, increase compared with untreated control", "setting": "human c-Kit (human)", "result": 21.5, "unit": "%"}, {"measurement": "concentration for optimal phosphorylation of cellular proteins in NCI-H69 cells (immunoblot, dose-response)", "setting": "human c-Kit (human)", "result": 10, "unit": "ng/mL"}, {"measurement": "time to phosphorylation of Akt (Ser 473) and p70 S6 kinase (Thr 389) in NCI-H69 cells, 50 ng/ml SCF", "setting": "human c-Kit (human)", "result": "< 2.5", "unit": "min"}]}
{"compound": "SCF: Recombinant human stem cell factor, natural ligand of c-Kit", "values": [{"measurement": "increase in viable cell number", "setting": "NCI-H69 cells [2]", "result": 16.5, "unit": "%"}, {"measurement": "cell proliferation induced, as compared with untreated control", "setting": "NCI-H69 cells [2]; media containing 10% FCS, 48 hours", "result": 21.5, "unit": "%"}, {"measurement": "effect on cell survival", "setting": "NCI-H69 cells [2]", "result": "neither SCF nor SDF-1α showed any effect"}, {"measurement": "concentration giving optimal phosphorylation of cellular proteins (dose-response studies)", "setting": "[3]; NCI-H69 cells", "result": "≥ 10", "unit": "ng/mL"}, {"measurement": "time of maximal tyrosine phosphorylation of proteins at 60-90 kDa and 110-145 kDa", "setting": "[3]; SCF 50 ng/ml, serum starved NCI-H69 cells", "result": "2.5-7.5 minutes"}, {"measurement": "time to phosphorylation of Akt (Ser 473) and p70 S6 kinase (Thr 389)", "setting": "Akt and p70 S6 kinase", "result": "≤ 2.5", "unit": "min"}, {"measurement": "morphological change of NCI-H69 cells in response to ligand", "setting": "NCI-H69 cells [1]", "result": "Neurite like actin formations were observed"}]}
{"compound": "SDF-1α: Recombinant human SDF-1α, natural ligand for CXCR4, member of the CXC chemokine family", "values": [{"measurement": "increase in viable cell number", "setting": "NCI-H69 cells [2]", "result": 15.5, "unit": "%"}, {"measurement": "effect on cell survival", "setting": "NCI-H69 cells [2]", "result": "neither SCF nor SDF-1α showed any effect"}, {"measurement": "time to tyrosine phosphorylated bands between 70-120 kDa", "setting": "[3]; SDF-1α 50 ng/ml, serum starved NCI-H69 cells", "result": "≤ 15", "unit": "min"}, {"measurement": "adhesion and morphology of cells with SDF-1α", "setting": "NCI-H446 cells", "result": "almost all cells tightly adhered to the bottom of the dish and neurite like projections were induced in many cells"}, {"measurement": "time to phosphorylation of Akt (Ser 473) and p70 S6 kinase (Thr 389)", "setting": "Akt and p70 S6 kinase", "result": "≤ 5", "unit": "min"}, {"measurement": "morphological change of NCI-H69 cells in response to ligand", "setting": "NCI-H69 cells [1]", "result": "more apparent as projections"}]}
